Assay results: patent US20050239656A1, “Pyridine compounds or salts thereof and herbicides containing the same” (priority 2002, published 2005)

System: rice (var. Nihonbare)
Assay: Test Example 3: paddy pot test, transplanted rice
Format: in vivo, Oryza sativa L.
Conditions: active ingredient 500 g/ha, applied 4th day after transplantation, visually observed 21st day after application, 0 = non-treated, 100 = complete kill
In short: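 Rice (var. Nihonbare) at 2 leaf stage transplanted 3 cm deep into puddled paddy soil under 3–4 cm flooding; on day 4 after transplanting, diluted wettable powder or emulsifiable concentrate applied by pipette under submerged conditions at a set active-ingredient dose. Growth scored visually 21 days after application, 0 (untreated) to 100 (complete kill) %.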

| Compound | Growth controlling degree (%) Rice |
| --- | --- |
| CCC(=O)NC(c1cnccc1C(F)(F)F)c1cccc2ccccc12 (centres unmarked) [Compound I-42] | 30% |
| CC(C)C(NC(=O)Cc1c(F)cccc1F)c1cnccc1C(F)(F)F (centres unmarked) [Compound I-5] | 20% |
| CN(C(=O)Cc1ccccc1)C(c1cnccc1C(F)(F)F)c1cccc2ccccc12 (centres unmarked) [Compound I-47] | 10% |
| COC(=O)NC(c1cnccc1C(F)(F)F)c1cccc2ccccc12 (centres unmarked) [Compound I-45] | 30% |

System: barnyardgrass
Assay: Test Example 3: paddy pot test, application under submerged conditions
Format: in vivo, Echinochloa crus-galli L.
Conditions: active ingredient 500 g/ha; submerged application at 0.5 leaf stage; visually observed 14 days after application; 0 = non-treated, 100 = complete kill
In short: (§1)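 Visual growth-control rating (0 = untreated, 100 = complete kill) 14 days after treatment. The formulated compound, as a diluted wettable powder or emulsifiable concentrate, went into 3–4 cm flood water at a predetermined active-ingredient dose once the weeds reached 0.5 leaf stage (wapato: primary leaf stage).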

| Compound | Growth controlling degree (%) Barnyardgrass |
| --- | --- |
| CCC(=O)NC(c1cnccc1C(F)(F)F)c1cccc2ccccc12 (centres unmarked) [Compound I-42] | 70% |
| CC(C)C(NC(=O)Cc1c(F)cccc1F)c1cnccc1C(F)(F)F (centres unmarked) [Compound I-5] | 60% |
| CN(C(=O)Cc1ccccc1)C(c1cnccc1C(F)(F)F)c1cccc2ccccc12 (centres unmarked) [Compound I-47] | 98% |
| COC(=O)NC(c1cnccc1C(F)(F)F)c1cccc2ccccc12 (centres unmarked) [Compound I-45] | 85% |

System: japanese ribbon wapato
Assay: as above
Format: in vivo, Sagittaria pygniaea
Conditions: active ingredient 500 g/ha; submerged application at primary leaf stage; visually observed 14 days after application; 0 = non-treated, 100 = complete kill
In short: as §1

| Compound | Growth controlling degree (%) Japanese ribbon wapato |
| --- | --- |
| CCC(=O)NC(c1cnccc1C(F)(F)F)c1cccc2ccccc12 (centres unmarked) [Compound I-42] | 10% |
| CC(C)C(NC(=O)Cc1c(F)cccc1F)c1cnccc1C(F)(F)F (centres unmarked) [Compound I-5] | 50% |
| CN(C(=O)Cc1ccccc1)C(c1cnccc1C(F)(F)F)c1cccc2ccccc12 (centres unmarked) [Compound I-47] | 0% |
| COC(=O)NC(c1cnccc1C(F)(F)F)c1cccc2ccccc12 (centres unmarked) [Compound I-45] | 60% |

System: velvetleaf
Assay: Test Example 2: soil surface treatment, upland pot test
Format: in vivo, Abutilon theophrasti MEDIC.
Conditions: active ingredient 1000 g/ha, observed 20th to 28th day
In short: (§2)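 Upland soil in pots of 1/170,000 ha is sown; on day 1 after sowing the formulated compound (wettable powder or emulsifiable concentrate, predetermined a.i. amount, water volume 1,500 L/ha) is applied to the soil surface with a small sprayer. Percent control is judged by eye 20–28 days later.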

| Compound | Growth controlling degree (%) Velvetleaf |
| --- | --- |
| CCC(=O)NC(c1cnccc1C(F)(F)F)c1cccc2ccccc12 (centres unmarked) [Compound I-42] | 0% |
| CC(C)C(NC(=O)Cc1c(F)cccc1F)c1cnccc1C(F)(F)F (centres unmarked) [Compound I-5] | 0% |
| COC(=O)NC(c1cnccc1C(F)(F)F)c1cccc2ccccc12 (centres unmarked) [Compound I-45] | 40% |

Same assay, conditions: active ingredient 2000 g/ha, observed 20th to 28th day

| Compound | Growth controlling degree (%) Velvetleaf |
| --- | --- |
| CN(C(=O)Cc1ccccc1)C(c1cnccc1C(F)(F)F)c1cccc2ccccc12 (centres unmarked) [Compound I-47] | 20% |

System: rice
Assay: as above
Format: in vivo, Oryza sativa L.
Conditions: active ingredient 1000 g/ha, observed 20th to 28th day
In short: as §2

| Compound | Growth controlling degree (%) Rice |
| --- | --- |
| CCC(=O)NC(c1cnccc1C(F)(F)F)c1cccc2ccccc12 (centres unmarked) [Compound I-42] | 0% |
| CC(C)C(NC(=O)Cc1c(F)cccc1F)c1cnccc1C(F)(F)F (centres unmarked) [Compound I-5] | 10% |
| COC(=O)NC(c1cnccc1C(F)(F)F)c1cccc2ccccc12 (centres unmarked) [Compound I-45] | 50% |

Same assay, conditions: active ingredient 2000 g/ha, observed 20th to 28th day

| Compound | Growth controlling degree (%) Rice |
| --- | --- |
| CN(C(=O)Cc1ccccc1)C(c1cnccc1C(F)(F)F)c1cccc2ccccc12 (centres unmarked) [Compound I-47] | 0% |

System: wheat
Assay: as above
Format: in vivo, Triticum spp.
Conditions: active ingredient 1000 g/ha, observed 20th to 28th day
Text: Upland field soil was put into a 1/170,000 ha pot, and seed of various plants (barnyardgrass, crabgrass, green foxtail, redroot pigweed, prickly sida, velvetleaf, rice, wheat, corn, soybean) were sown. On the 1st day after the sowing, a wettable powder or emulsifiable concentrate having the compound of the present invention formulated in accordance with a usual formulation method, was weighed so that the active ingredient would be a predetermined amount, and diluted with water in an amount of 1,500 L/ha. The herbicide thus adjusted was applied by a small size sprayer for soil surface treatment. On the 20th to 28th days after the application of the herbicide, the growth of the respective plants was visually observed, and the herbicidal effects were evaluated by the growth controlling degrees (%) ranging from 0 (equivalent to the non-treated plot) to 100 (complete kill), whereby the results shown in Table 4, were obtained.

| Compound | Growth controlling degree (%) wheat |
| --- | --- |
| CCC(=O)NC(c1cnccc1C(F)(F)F)c1cccc2ccccc12 (centres unmarked) [Compound I-42] | 30% |
| CC(C)C(NC(=O)Cc1c(F)cccc1F)c1cnccc1C(F)(F)F (centres unmarked) [Compound I-5] | 10% |
| COC(=O)NC(c1cnccc1C(F)(F)F)c1cccc2ccccc12 (centres unmarked) [Compound I-45] | 30% |

Same assay, conditions: active ingredient 2000 g/ha, observed 20th to 28th day

| Compound | Growth controlling degree (%) wheat |
| --- | --- |
| CN(C(=O)Cc1ccccc1)C(c1cnccc1C(F)(F)F)c1cccc2ccccc12 (centres unmarked) [Compound I-47] | 20% |

System: crabgrass
Assay: as above
Format: in vivo, Digitaria sanguinalis L.
Conditions: active ingredient 1000 g/ha, observed 20th to 28th day
In short: as §2

| Compound | Growth controlling degree (%) Crabgrass |
| --- | --- |
| CCC(=O)NC(c1cnccc1C(F)(F)F)c1cccc2ccccc12 (centres unmarked) [Compound I-42] | 90% |
| CC(C)C(NC(=O)Cc1c(F)cccc1F)c1cnccc1C(F)(F)F (centres unmarked) [Compound I-5] | 90% |
| COC(=O)NC(c1cnccc1C(F)(F)F)c1cccc2ccccc12 (centres unmarked) [Compound I-45] | 90% |

Same assay, conditions: active ingredient 2000 g/ha, observed 20th to 28th day

| Compound | Growth controlling degree (%) Crabgrass |
| --- | --- |
| CN(C(=O)Cc1ccccc1)C(c1cnccc1C(F)(F)F)c1cccc2ccccc12 (centres unmarked) [Compound I-47] | 90% |

System: green foxtail
Assay: as above
Format: in vivo, Setaria viridis L.
Conditions: active ingredient 1000 g/ha, observed 20th to 28th day
In short: as §2

| Compound | Growth controlling degree (%) Green foxtail |
| --- | --- |
| CCC(=O)NC(c1cnccc1C(F)(F)F)c1cccc2ccccc12 (centres unmarked) [Compound I-42] | 90% |
| CC(C)C(NC(=O)Cc1c(F)cccc1F)c1cnccc1C(F)(F)F (centres unmarked) [Compound I-5] | 70% |
| COC(=O)NC(c1cnccc1C(F)(F)F)c1cccc2ccccc12 (centres unmarked) [Compound I-45] | 60% |

Same assay, conditions: active ingredient 2000 g/ha, observed 20th to 28th day

| Compound | Growth controlling degree (%) Green foxtail |
| --- | --- |
| CN(C(=O)Cc1ccccc1)C(c1cnccc1C(F)(F)F)c1cccc2ccccc12 (centres unmarked) [Compound I-47] | 80% |

System: redroot pigweed
Assay: as above
Format: in vivo, Amaranthus retroflexus L.
Conditions: active ingredient 1000 g/ha, observed 20th to 28th day
In short: as §2

| Compound | Growth controlling degree (%) Redroot pigweed |
| --- | --- |
| CCC(=O)NC(c1cnccc1C(F)(F)F)c1cccc2ccccc12 (centres unmarked) [Compound I-42] | 0% |
| CC(C)C(NC(=O)Cc1c(F)cccc1F)c1cnccc1C(F)(F)F (centres unmarked) [Compound I-5] | 0% |
| COC(=O)NC(c1cnccc1C(F)(F)F)c1cccc2ccccc12 (centres unmarked) [Compound I-45] | 40% |

Same assay, conditions: active ingredient 2000 g/ha, observed 20th to 28th day

| Compound | Growth controlling degree (%) Redroot pigweed |
| --- | --- |
| CN(C(=O)Cc1ccccc1)C(c1cnccc1C(F)(F)F)c1cccc2ccccc12 (centres unmarked) [Compound I-47] | 0% |

System: japanese bulrush
Assay: Test Example 3: paddy pot test, application under submerged conditions
Format: in vivo, Scirpus juncoides
Conditions: active ingredient 500 g/ha; submerged application at 0.5 leaf stage; visually observed 14 days after application; 0 = non-treated, 100 = complete kill
In short: as §1

| Compound | Growth controlling degree (%) Japanese bulrush |
| --- | --- |
| CCC(=O)NC(c1cnccc1C(F)(F)F)c1cccc2ccccc12 (centres unmarked) [Compound I-42] | 95% |
| CC(C)C(NC(=O)Cc1c(F)cccc1F)c1cnccc1C(F)(F)F (centres unmarked) [Compound I-5] | 90% |
| CN(C(=O)Cc1ccccc1)C(c1cnccc1C(F)(F)F)c1cccc2ccccc12 (centres unmarked) [Compound I-47] | 30% |
| COC(=O)NC(c1cnccc1C(F)(F)F)c1cccc2ccccc12 (centres unmarked) [Compound I-45] | 90% |

System: corn
Assay: Test Example 2: soil surface treatment, upland pot test
Format: in vivo, Zea mays L.
Conditions: active ingredient 1000 g/ha, observed 20th to 28th day
In short: as §2

| Compound | Growth controlling degree (%) Corn |
| --- | --- |
| CCC(=O)NC(c1cnccc1C(F)(F)F)c1cccc2ccccc12 (centres unmarked) [Compound I-42] | 10% |
| CC(C)C(NC(=O)Cc1c(F)cccc1F)c1cnccc1C(F)(F)F (centres unmarked) [Compound I-5] | 20% |
| COC(=O)NC(c1cnccc1C(F)(F)F)c1cccc2ccccc12 (centres unmarked) [Compound I-45] | 20% |

Same assay, conditions: active ingredient 2000 g/ha, observed 20th to 28th day

| Compound | Growth controlling degree (%) Corn |
| --- | --- |
| CN(C(=O)Cc1ccccc1)C(c1cnccc1C(F)(F)F)c1cccc2ccccc12 (centres unmarked) [Compound I-47] | 10% |

System: barnyardgrass
Assay: as above
Format: in vivo, Echinochloa crus-galli L.
Conditions: active ingredient 1000 g/ha, observed 20th to 28th day, 0 = non-treated, 100 = complete kill
In short: as §2

| Compound | Growth controlling degree (%) Barnyardgrass |
| --- | --- |
| CCC(=O)NC(c1cnccc1C(F)(F)F)c1cccc2ccccc12 (centres unmarked) [Compound I-42] | 70% |
| CC(C)C(NC(=O)Cc1c(F)cccc1F)c1cnccc1C(F)(F)F (centres unmarked) [Compound I-5] | 30% |
| COC(=O)NC(c1cnccc1C(F)(F)F)c1cccc2ccccc12 (centres unmarked) [Compound I-45] | 0% |

Same assay, conditions: active ingredient 2000 g/ha, observed 20th to 28th day

| Compound | Growth controlling degree (%) Barnyardgrass |
| --- | --- |
| CN(C(=O)Cc1ccccc1)C(c1cnccc1C(F)(F)F)c1cccc2ccccc12 (centres unmarked) [Compound I-47] | 60% |

System: prickly sida
Assay: as above
Format: in vivo, Sida spinosa L.
Conditions: active ingredient 1000 g/ha, observed 20th to 28th day
In short: as §2

| Compound | Growth controlling degree (%) Prickly sida |
| --- | --- |
| CCC(=O)NC(c1cnccc1C(F)(F)F)c1cccc2ccccc12 (centres unmarked) [Compound I-42] | 0% |
| CC(C)C(NC(=O)Cc1c(F)cccc1F)c1cnccc1C(F)(F)F (centres unmarked) [Compound I-5] | 0% |
| COC(=O)NC(c1cnccc1C(F)(F)F)c1cccc2ccccc12 (centres unmarked) [Compound I-45] | 40% |

Same assay, conditions: active ingredient 2000 g/ha, observed 20th to 28th day

| Compound | Growth controlling degree (%) Prickly sida |
| --- | --- |
| CN(C(=O)Cc1ccccc1)C(c1cnccc1C(F)(F)F)c1cccc2ccccc12 (centres unmarked) [Compound I-47] | 40% |

System: soybean
Assay: as above
Format: in vivo, Glycine max Merr.
Conditions: active ingredient 1000 g/ha, observed 20th to 28th day
In short: as §2

| Compound | Growth controlling degree (%) Soyabean |
| --- | --- |
| CCC(=O)NC(c1cnccc1C(F)(F)F)c1cccc2ccccc12 (centres unmarked) [Compound I-42] | 0% |
| CC(C)C(NC(=O)Cc1c(F)cccc1F)c1cnccc1C(F)(F)F (centres unmarked) [Compound I-5] | 10% |
| COC(=O)NC(c1cnccc1C(F)(F)F)c1cccc2ccccc12 (centres unmarked) [Compound I-45] | 0% |

Same assay, conditions: active ingredient 2000 g/ha, observed 20th to 28th day

| Compound | Growth controlling degree (%) Soyabean |
| --- | --- |
| CN(C(=O)Cc1ccccc1)C(c1cnccc1C(F)(F)F)c1cccc2ccccc12 (centres unmarked) [Compound I-47] | 10% |
